Consider three molecules from patent US20260224652A1, “ENRICHED PELARGONIUM GRAVEOLENS EXTRACTS FOR THE TREATMENT OF TRAUMATIC BRAIN INJURIES” (THE STATE OF ISRAEL, MINISTRY OF AGRICULTURE & RURAL …, priority 2023, published 2026).

One assay concerns the target acetyl choline esterase (Homo sapiens, UniProt P22303). Particulars: in vitro; cited from earlier work.
The test system of assay [1] is mice subjected to a closed head injury (CHI). As to the kind of experiment: Neurological Severity Score (NSS) after closed head injury. In kind it is in vivo. Conditions: oral gavage, 9 daily doses over 2 weeks starting 24 h after CHI; Pg oil 100 mg/kg, citronellol 25 mg/kg, citronellyl formate 80 mg/kg; from day 7 up to 30 days after trauma. On the procedure:
(§1) Experimental CHI was induced by using a modified weight drop device (Chen et al; Flierl et al). Briefly, under 3% isoflurane anesthesia and supplementary oxygen (confirmed by the loss of response to pinch of paw), a midline longitudinal incision is performed, and the skull is exposed. A Teflon tipped cone (2 mm diameter) is placed upside down 2 mm lateral to the midline and 2 mm posterior to the bregma in the mid-coronal plane. The head is held in place and a 95 g weight is allowed to free-fall on the cone from a pre-established height, resulting in focal injury to the left hemisphere. The height of the free-fall weight is determined by the weight of the mouse and the desired CHI severity. In the present experiments, a free-fall of 6.5-7 cm was selected to induce a moderate neurological severity injury (NSS of 6-7 at 1 hr post injury). […] At 1 h after CHI, the NSS is evaluated. […] Animals displaying apnea were monitored carefully and returned to their cage when adequate oxygenation was restored. • a. […]
The functional status of the mice was evaluated according to the neurobehavioral score, known as the Neurological Severity Score (NSS), which consists of several tests that assess reflexes, alertness, coordination, and motor abilities. […]
The neurological severity score (NSS) was determined for each of the experimental groups of mice (details as described above) starting 1 hour after the trauma.

For assay [2] the test system is unchanged. In words: Barnes maze test (learning) after CHI. Conditions: acquisition days 1-4, two weeks after CHI; oral gavage, 9 daily doses; Pg oil 100 mg/kg, citronellol 25 mg/kg, citronellyl formate 80 mg/kg. In kind it is in vivo. On the procedure: as §1, with “injury). Sham mice were anesthetized and subjected to the same skin incision as described above, with no further trauma.” for “injury).”
The BM test is based on the instinct of the mouse to hide when exposed to environmental disturbances and is used to test spatial learning and memory. […] For the probe trial, the latency to reaching the escape box first is recorded. […]

For assay [3] the test system is unchanged. As to the kind of experiment: Novel Object Recognition (NOR) test after CHI. In kind it is in vivo. Particulars: 22 days after trauma; 4 hours after object replaced; oral gavage, 9 daily doses; Pg oil 100 mg/kg, citronellol 25 mg/kg, citronellyl formate 80 mg/kg. As to the method: as §1, with “severity.” for “severity. In the present experiments, a free-fall of 6.5-7 cm was selected to induce a moderate neurological severity injury (NSS of 6-7 at 1 hr post injury).”
The novel object recognition (NOR test) was performed to assess short term memory 22d after trauma. […] The cumulative time spent by each mouse exploring the objects was recorded manually for a total of 5 min. […] Exploration of the object was determined as such when the mouse's nose was pointed in the direction of the object and the mouse was actively investigating it, directly touching it or being close to it. […] The time spent exploring each of the objects (novel or familiar) was recorded and calculated as the percentage of time from a total of 5 min. […]

Assay [4] shares this test system. As to the kind of experiment: Y maze spatial memory test after CHI. Conditions: 24 days after trauma; oral gavage, 9 daily doses; Pg oil 100 mg/kg, citronellol 25 mg/kg, citronellyl formate 80 mg/kg. In kind it is in vivo. On the procedure:
as §1, with “severity.” for “severity. In the present experiments, a free-fall of 6.5-7 cm was selected to induce a moderate neurological severity injury (NSS of 6-7 at 1 hr post injury).”
At 24 days post CHI, the Y maze spatial memory test was preformed to evaluate short term spatial memory. […] Short-term memory is reflected by the Preference index (PI), calculated as the amount of time spent in the new arm relative to the total amount of time spent in the “other” plus “new” arms. […]
The data was further analyzed by dividing the mice's performance into two groups: mice with (+) positive y-axis values (which represent a good spatial memory) and mice with negative (−) y-axis values (which represent spatial memory loss).

Where a name gives a salt, the structure may show the parent alone.

acetyl choline esterase, sequence (P22303 32-614): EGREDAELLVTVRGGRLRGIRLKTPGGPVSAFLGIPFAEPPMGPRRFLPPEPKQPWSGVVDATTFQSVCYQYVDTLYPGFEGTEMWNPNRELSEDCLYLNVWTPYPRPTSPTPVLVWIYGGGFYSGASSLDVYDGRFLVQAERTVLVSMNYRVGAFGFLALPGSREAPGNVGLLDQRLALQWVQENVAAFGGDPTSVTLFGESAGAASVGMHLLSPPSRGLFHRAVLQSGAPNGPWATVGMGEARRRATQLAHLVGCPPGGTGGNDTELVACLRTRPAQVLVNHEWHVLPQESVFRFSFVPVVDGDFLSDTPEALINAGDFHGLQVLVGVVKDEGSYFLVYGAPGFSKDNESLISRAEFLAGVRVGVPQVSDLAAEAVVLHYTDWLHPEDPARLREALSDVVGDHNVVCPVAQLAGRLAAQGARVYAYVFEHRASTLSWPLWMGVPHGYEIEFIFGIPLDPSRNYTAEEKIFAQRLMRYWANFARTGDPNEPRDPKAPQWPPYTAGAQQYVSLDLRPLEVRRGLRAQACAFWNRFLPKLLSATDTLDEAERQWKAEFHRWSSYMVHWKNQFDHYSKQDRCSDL

For `CC(C)=CCC[C@H](C)CCO` [(S) (−) citronellol], at acetyl choline esterase, the “inhibition of acetyl choline esterase activity” value was “inhibits in vitro the activity of the enzyme acetyl choline esterase”.
Consider `CC(C)=CCCC(C)CCO` (stereo not drawn) [citronellol], for which the “reduction in the neurological severity score (NSS) compared with vehicle treated CHI mice” value in assay [1] is “significant reduction”. Further, the “Barnes maze learning performance (latency to escape box)” value in assay [2] is reported as “significant improvement, but only on day 2”. Besides, the “preference/recognition of a novel object versus a familiar one (NOR)” value in assay [3] was “not able to prefer/recognize a novel object”. Also, the “percent of mice that preferred the novel arm over the familiar arm (Y maze)” value in assay [4] is “About 54%”.
For `CC(C)=CCCC(C)CCOC=O` (stereo not drawn) [citronellyl formate], the “reduction in the neurological severity score (NSS) compared with vehicle treated CHI mice” value in assay [1] is on record as “significant reduction”. Besides, in assay [2], the “Barnes maze learning performance (latency to escape box)” value is “significant improvement, but only on day 2”. In assay [3], the “preference/recognition of a novel object versus a familiar one (NOR)” value is “not able to prefer/recognize a novel object”. Besides, the “percent of mice that preferred the novel arm over the familiar arm (Y maze)” value in assay [4] is recorded as “About 54%”.
